In paper PMC11661808 (ADMET & DMPK, 2024):
Like-named read-outs stand apart in the source and are kept apart here.

How the values were obtained:
[1] = Ketoconazole concentration in plasma and ocular tissues after single topical ocular instillation; format: in vivo, Sprague Dawley rats; conditions: for concentration at 5 min / concentration at 120 min / concentration at 30 min: Sprague Dawley, rat, topical; for concentration at 120 min: 120 min post-dose; for concentration at 30 min: 30 min post-dose
Protocol: The mixture was stirred at 40 °C. Subsequently, 0.040 mL of 1 M hydrochloric acid was added, and the mixture was stirred at 40 °C until it was completely dissolved. 0.250 mL of hydroxypropyl beta-cyclodextrin (HPβCD) was added and vortexed and stirred at 40 °C until clear. 0.005 mL of 1 M sodium hydroxide was added to adjust the pH to 6.5-7.0 while stirring magnetically at 40 °C, and 0.038 mL of water was added, vortexed, and stirred at 40 °C until clear.
Each tissue was then homogenized using an Ultrasonic Cell Crusher for 5 seconds. The cornea and retina homogenates were sonicated for 10 min, while the vitreous was sonicated for 30 min at 0 °C prior to bioanalysis. The ocular tissue homogenates were stored in a -80 °C freezer before bioanalysis.
All samples underwent protein precipitation for pharmacokinetic analysis. Plasma and three types of tissue homogenate samples (50 μL each) were treated with 5 μL of methanol and then quenched with a 200 μL methanol and acetonitrile mixture (1:1, v/v) containing 50 ng/mL terfenadine as an internal standard (ISTD). After vortexing for 1 min and centrifuging at 4000 rpm for 15 min, the supernatant was transferred and diluted 10-fold with a methanol/water solution (1:1, v/v, containing 0.1 % formic acid) for LC-MS/MS analysis. The working solution was prepared with a concentration range of 50.0 to 100,000 ng/mL.
The quantitative sample analysis was performed on a Shimadzu LC-20AD (Shimadzu, Japan) - API 4000 mass spectrometer (SCIEX, Canada).

[2] = humans, cited from earlier work
[3] = in vivo
Protocol: (§1) Nine rats were randomly divided into three groups and their body weights were recorded from 254 to 281 g. […] Rats were sacrificed at 5, 30 and 120 min post-dose (n = 3 per time point). Cornea, retina, and vitreous humour samples were collected, washed in saline three times and weighed, while blood samples were taken from the heart puncture. Tissue samples were initially stored on dry ice, while the blood samples were centrifuged at 4 °C and 6000 rpm for 10 min. Subsequently, the plasma samples were prepared and also stored on dry ice. Ultimately, all samples were cryopreserved in a -80 °C freezer after harvest.
(§2) Rat plasma (400 RL, 44.4 LL/rat at each time point) was pooled from 3-time points utilizing the equal volume method and subsequently precipitated with acetonitrile containing 0.1 % formic acid at a ratio of 1:3. Homogenate samples of rat cornea, retina, and vitreous humour (600 L, 66.7 LL /rat) were pooled from three time points individually utilizing the equal volume and transferred into a 15 mL centrifuge tube and subjected to precipitation with acetonitrile containing 0.1 % formic acid at the same ratio of 1:3. Following centrifugation, the supernatant was evaporated under a stream of nitrogen gas. The residues from plasma and rat retina were reconstituted with 150 L of 10 % acetonitrile in H2O (with 0.1 % formic acid), while the residues from the rat cornea and vitreous humour were reconstituted with 100 L of 10 % acetonitrile in H2O (0.1 % formic acid). Four types of blank samples were processed in a similar manner. Ultimately, 10,L samples of each tissue were injected for analysis using the Ultimate 3000-Q-Exactive Plus system.
(§3) Mobile phase A consisted of water containing 0.1 % formic acid, while mobile phase B consisted of acetonitrile with 0.1 % formic acid. […] Mass scanning was performed on the Q-Exactive Plus using positive-ion full MS/dd-MS2 mode with a range from m/z 80 to 900. The collision energy was set at 30, 40 and 50 eV. The mass resolution was set as 70,000 for full MS, and 17,500 for dd-MS2 scans, and the mass error limit was set as 5.0 ppm.

[4] = Metabolite identification and profiling in pooled rat plasma, cornea, retina and vitreous humour after eye drop administration; conditions: for Relative peak area abundance, COR: pooled rat cornea homogenate (5, 30, 120 min); for Relative peak area abundance, VH: pooled rat vitreous humour homogenate (5, 30, 120 min); for Relative peak area abundance, PLA: pooled rat plasma (5, 30, 120 min)
Protocol: as §1, §2, §3

[5] = plasma, 300 μg per rat, rat plasma, read-out: mean concentration in plasma
[6] = selected ion chromatographic peak areas

CC(=O)N1CCN(c2ccc(OCC3COC(Cn4ccnc4)(c4ccc(Cl)cc4Cl)O3)cc2)CC1 (centres unmarked) [Ketoconazole]
concentration at 5 min ([1]; cornea, 150 μg per eye, rat cornea, left eye, 5 min post-dose, 150 μg per eye, read-out: mean concentration in cornea, left eye): 416000 ng/g
concentration at 5 min ([1]; cornea, 150 μg per eye, rat cornea, right eye, 5 min post-dose, 150 μg per eye, read-out: mean concentration in cornea, right eye): 430000 ng/g
concentration at 5 min ([1]; cornea, 300 μg per rat, mean ketoconazole concentration in cornea, rat cornea, 5 min post-dose, 300 μg/rat topical ocular): 423000 ng/g
concentration at 120 min ([1]; cornea, 300 μg per rat, mean ketoconazole concentration in cornea, rat cornea, mean of left and right eye): 8360 ng/g
concentration at 30 min ([1]; cornea, 300 μg per rat, rat cornea, mean of left and right eye, read-out: mean concentration in cornea): 113000 ng/g
concentration at 120 min ([1]; plasma, 300 μg per rat, mean ketoconazole concentration in plasma, rat plasma, 300 μg/rat topical ocular): 38.4 ng/mL
concentration at 5 min ([1]; plasma, 300 μg per rat, rat plasma, 5 min post-dose, read-out: mean concentration in plasma): 445 ng/mL
concentration at 30 min [1, 5]: 303 ng/mL
concentration at 120 min [1, 5]: 38.4 ng/mL
concentration at 5 min ([1]; retina, 150 μg per eye, rat retina, left eye, 5 min post-dose, 150 μg per eye, read-out: mean concentration in retina, left eye): 439 ng/g
concentration at 5 min ([1]; retina, 150 μg per eye, rat retina, right eye, 5 min post-dose, 150 μg per eye, read-out: mean concentration in retina, right eye): 552 ng/g
concentration at 5 min ([1]; retina, 300 μg per rat, mean ketoconazole concentration in retina, rat retina, 5 min post-dose, 300 μg/rat topical ocular): 4960 ng/g
concentration at 120 min ([1]; retina, 300 μg per rat, mean ketoconazole concentration in retina, rat retina, mean of left and right eye): 94.4 ng/g
concentration at 30 min ([1]; retina, 300 μg per rat, rat retina, mean of left and right eye, read-out: mean concentration in retina): 1470 ng/g
concentration at 5 min ([1]; vitreous humour, 150 μg per eye, rat vitreous humour, left eye, 5 min post-dose, 150 μg per eye, read-out: mean concentration in vitreous humour, left eye): 1120 ng/g
concentration at 5 min ([1]; vitreous humour, 150 μg per eye, rat vitreous humour, right eye, 5 min post-dose, 150 μg per eye, read-out: mean concentration in vitreous humour, right eye): 1180 ng/g
concentration at 5 min ([1]; vitreous humour, 300 μg per rat, mean ketoconazole concentration in vitreous humour, rat vitreous humour, 5 min post-dose, 300 μg/rat topical ocular): 1190 ng/g
concentration at 120 min ([1]; vitreous humour, 300 μg per rat, mean ketoconazole concentration in vitreous humour, rat vitreous humour, mean of left and right eye): 116 ng/g
concentration at 30 min ([1]; vitreous humour, 300 μg per rat, rat vitreous humour, mean of left and right eye, read-out: mean concentration in vitreous humour): 713 ng/g
mean peak plasma concentration ([1]; rat plasma, 5 min post-dose, 300 μg/rat topical ocular): 445 ng/mL
biphasic elimination, thereafter ([2]; after the first 10 h): 8 h
biphasic elimination, during the first 10 h ([2]; first 10 h): 2 h
time to maximum plasma concentration [2]: 1 to 2 h

Clc1ccc([C@@]2(Cn3ccnc3)OC[C@H](COc3ccc(N4CCNCC4)cc3)O2)c(Cl)c1 [M4 (DAK), N-deacetyl ketoconazole]
detection in rat plasma ([3]; Sprague Dawley): No N-deacetyl ketoconazole (M4) was found
Relative peak area abundance, COR ([3]; Sprague Dawley, rat): 0.2%
detection in rat plasma [3]: not detected

CC(=O)N1CCN(c2ccc(OC[C@H]3CO[C@](Cn4ccnc4)(c4ccc(Cl)cc4Cl)O3)cc2)CC1O (some centres unmarked) [Metabolite M1]
Relative peak area abundance, COR [4, 6]: D (detected in trace amount (the relative abundance was less than 0.1 %))
Relative peak area abundance, VH [4, 6]: D (detected in trace amount (the relative abundance was less than 0.1 %))

OC[C@H]1CO[C@](Cn2ccnc2)(c2ccc(Cl)cc2Cl)O1 [Metabolite M2]
Relative peak area abundance, COR [4, 6]: 1.1%
Relative peak area abundance, PLA [4, 6]: 0.1%
Relative peak area abundance, RET ([4]; pooled rat retina homogenate (5, 30, 120 min), selected ion chromatographic peak areas): 1.2%
Relative peak area abundance, VH [4, 6]: 0.6%
abundance of dominant metabolite in cornea, retina ([4]; rat cornea, retina): 1.1-1.2%

CC(=O)N1CCN(c2ccc(OC[C@H]3CO[C@](CN)(c4ccc(Cl)cc4Cl)O3)cc2)CC1 [Metabolite M6]
Relative peak area abundance, COR [4, 6]: 0.1%
Relative peak area abundance, PLA [4, 6]: 0.6%
